Experimental data reported in patent EP4692094A1 (Beijing Konruns Pharmaceutical Co., Ltd., priority 2023, dated 2024).
pIC50: −log10 of the molar value.

Assays:
[1] = Assay for plasma protein binding rate (equilibrium dialysis), human plasma; format: in vitro ADME; settings: dialysis 6 h at 37 °C, read-out: Human (Fu%)
Method: 1.1 Preparation of compounds: The compounds prepared in the examples were each dissolved in dimethylsulfoxide to give solutions at a concentration of 10 mmol/L. • 1) The example compounds were each diluted from 10 mmol/L stock solution to 0.2 mmol/L, i.e., 1 µL of the compound was added to 49 µL of DMSO; • 2) 3 µL of 0.2 mmol/L test compounds were added to 597 µL of blood plasma, and the mixtures were vortexed at 1000 rpm for 2 min; • 3) 50 µL of the plasma containing the drug in 2) was taken, 50 µL of PBS was added, and 300 µL of methanol internal standard* was added to serve as a sample T0; • 4) 120 µL of the plasma containing the drug in 2) was taken and added to one side of an HTD device membrane, and 120 µL of PBS was added to the other side of the membrane; a breathable film was covered, and the plasma and the residual sample in 2) were balanced at 37 °C (100 rpm and 5% CO2) for 6 h; • 5) 50 µL of the dialyzed plasma side sample was taken, 50 µL of PBS was added, and 300 µL of methanol internal standard* was added to serve as a sample P; • 6) 50 µL of the dialyzed PBS side sample was taken, 50 µL of blank plasma was added, and 300 µL of methanol internal standard* was added to serve as a sample B; • 7) 50 µL of the plasma containing the drug in 2) was taken, 50 µL of PBS was added, and 300 µL of methanol internal standard* was added to serve as a sample T6; • 8) All samples were vortexed, mixed homogeneously, and then centrifuged at 3220 g for 40 min at 4 °C; • 9) 100 µL of the supernatant and 100 µL of purified water were mixed homogenously for liquid chromatography-mass spectrometry.
An internal standard method was used, and the plasma protein binding rate, recovery rate, and residual percentage were calculated by using Excel according to the ratio of the peak area of the sample to the peak area of the internal standard. Free rate(%) = (RatioB)/(RatioP) × 100% [formula] Binding rate(%) = 100%−Free rate% [formula] Recovery rate(%) = (RatioB + RatioP)/(RatioT0) × 100% [formula] Remaining percentage(%) = (RatioT6)/(RatioT0) × 100% [formula]
RatioB: a ratio of the peak area of the test substance on the PBS side to the peak area of the internal standard; RatioP: a ratio of the peak area of the test substance on the plasma side to the peak area of the internal standard; RatioT6: a ratio of the peak area of the sample after incubation with the test substance for 6 h to the peak area of the internal standard; RatioT0: a ratio of the peak area of the sample after incubation with the test substance for 0 h to the peak area of the internal standard. Table 8. Plasma protein binding rate (Fu%) data for various species of example compounds

[2] = biological target: T1, KAT7 (Homo sapiens, UniProt O95251); assay: Enzymatic activity assay for KAT7 acetyltransferase (TR-FRET, histone substrate H4); format: biochemical; settings: KAT7 15 nM, H4 300 nM, AcCOA 2 µM
T1 construct: purchased ICE S02210F-H21HF
Method: The acetylation effects of KAT6B on histone substrate H3, as well as KAT5, KAT7, and KAT8 on histone substrate H4, were determined using the TR-FRET (time-resolved fluorescence resonance energy transfer) method. The determination was performed according to experimental procedures similar to those in "Pharmacological Experiment I": 1.2 Preparation of compounds: The compounds prepared in the examples were each dissolved in dimethylsulfoxide to give solutions at a concentration of 10 mmol/L. • 1) The compounds in the examples were each diluted from 10 mmol/L stock solution to 0.2 mmol/L, i.e., 1 µL of the compound was added to 49 µL of DMSO, and 3-fold dilution was performed to give 10 concentrations. • 2) 50 nL of the test compounds were transferred to 384 reaction plates using Echo, two replicates for each compound, and the plates were centrifuged at a rotation speed of 1000 rpm for 1 min, the final concentration of dimethylsulfoxide (DMSO) being 0.5%.
For KAT7: • 3) 2.5 µL of the KAT7 enzyme solution at a final concentration of 15 nM was added to the 384 reaction plates in step 2), and the plates were centrifuged at 1000 rpm for 1 min and incubated at 25 °C for 10 min. • 4) 2.5 µL of H4 at a final concentration of 300 nM and an AcCOA (acetyl-CoA) reaction solution at a final concentration of 2 µM were added to the 384 reaction plates in step 3), and the plates were centrifuged at a rotation speed of 1000 rpm for 1 min and incubated at 25 °C for 90 min.
For KAT8: • 3) 2.5 µL of the KAT8 enzyme solution at a final concentration of 10 nM was added to the 384 reaction plates in step 2), and the plates were centrifuged at 1000 rpm for 1 min and incubated at 25 °C for 10 min. • 4) 2.5 µL of […] at a final concentration of 300 nM and an AcCOA (acetyl-CoA) reaction solution at a final concentration of 2 µM were added to the 384 reaction plates in step 3), and the plates were centrifuged at a rotation speed of 1000 rpm for 1 min and incubated at 25 °C for 90 min. • 5) 5 µL of Eu-Ab& Ulight-SA detection solution was separately added to the 384 reaction plates in step 4) of the 4 groups described above, and the plates were centrifuged at 1000 rpm for 1 min and incubated at 25 °C for 60 min. • 6) The HTRF […] signals were read using a BMG high-throughput drug-screening multi-mode microplate reader.
The acetylation levels of the histones in the groups were analyzed by the GraphPad Prism 8 software. The reading of the negative control (0.5% DMSO wells) was set as 0% inhibition rate, and the reading of the positive control (wells with the highest concentration of the control compound) was set as 100% inhibition rate. The inhibition rates were calculated, and then IC50 values (half maximal inhibitory concentration) of test compounds were obtained by using a software nonlinear fitting formula; [formula]
Datapositive control: mean of positive control well values; Datanegative control: mean of negative control well values. Table 5. Enzymatic inhibitory activity of example compounds

T1 sequence (O95251 whole entry): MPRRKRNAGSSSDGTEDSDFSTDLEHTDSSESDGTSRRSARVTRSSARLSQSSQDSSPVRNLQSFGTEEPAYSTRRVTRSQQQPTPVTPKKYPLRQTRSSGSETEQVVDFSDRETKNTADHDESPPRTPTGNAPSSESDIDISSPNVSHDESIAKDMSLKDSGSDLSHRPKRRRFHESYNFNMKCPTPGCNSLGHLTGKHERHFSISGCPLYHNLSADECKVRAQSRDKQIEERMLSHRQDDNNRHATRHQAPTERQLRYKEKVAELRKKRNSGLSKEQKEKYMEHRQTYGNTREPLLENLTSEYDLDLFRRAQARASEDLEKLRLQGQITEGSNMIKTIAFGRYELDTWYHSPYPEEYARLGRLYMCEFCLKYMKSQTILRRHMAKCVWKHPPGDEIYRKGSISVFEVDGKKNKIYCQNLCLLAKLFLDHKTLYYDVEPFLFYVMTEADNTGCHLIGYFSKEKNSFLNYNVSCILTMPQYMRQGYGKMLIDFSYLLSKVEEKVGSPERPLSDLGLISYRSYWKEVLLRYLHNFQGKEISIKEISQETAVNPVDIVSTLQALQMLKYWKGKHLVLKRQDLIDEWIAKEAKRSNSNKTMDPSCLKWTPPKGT

SMILES	fraction unbound at 6 h, 1 µM [1]	pIC50 [2]
COc1ccc2ccoc2c1S(=O)(=O)Nc1noc2cc(Cn3cccn3)nc(OC)c12 [Example 10, N-(6-((1H-Pyrazol-1-yl)methyl)-4-methoxyisoxazolo[4,5-c]pyridin-3-yl)-6-methoxybenzofuran-7-sulfonamide]	0.0073	8.13
COc1cc2c(cc1S(=O)(=O)Nc1noc3cc(Cn4cccn4)nc(OC)c13)CCCO2 [Example 76, N-(6-((1H-Pyrazol-1-yl)methyl)-4-methoxyisoxazolo[4,5-c]pyridin-3-yl)-7-methoxy-3,4-dihydro-1H-benzopyran-6-sulfonamide]	0.0118	7.06
COc1cc2c(cc1S(=O)(=O)Nc1noc3cc(Cn4cccn4)nc(OC)c13)CCCC2 [Example 2, N-(6-((1H-Pyrazol-1-yl)methyl)-4-methoxyisoxazolo[4,5-c]pyridin-3-yl)-3-methoxy-5,6,7,8-tetrahydronaphthalene-2-sulfonamide]	0.0099	7.27
COc1cc2c(cc1S(=O)(=O)Nc1noc3cc(Cn4cccn4)nc(OC)c13)OCC2 [Example 59, N-(6-((1H-Pyrazol-1-yl)methyl)-4-methoxyisoxazolo[4,5-c]pyridin-3-yl)-5-methoxy-2,3-dihydrobenzofuran-6-sulfonamide]	0.0248	7.56
COc1ccc2c(c1S(=O)(=O)Nc1noc3cc(Cn4cccn4)nc(OC)c13)OCC2 [Example 9, N-(6-((1H-Pyrazol-1-yl)methyl)-4-methoxyisoxazolo[4,5-c]pyridin-3-yl)-6-methoxy-2,3-dihydrobenzofuran-7-sulfonamide]	0.0069	7.32
